Data on 18 compounds can be found in ChEMBL document CHEMBL1148615, “3-Amino-1,4,5,6-tetrahydropyrrolo[3,4-c]pyrazoles: a new class of CDK2 inhibitors” (Bioorg Med Chem Lett, 2006).

In one data set the target is T1, Aurora kinase A (Homo sapiens, UniProt O14965).
T1 sequence (O14965 whole entry): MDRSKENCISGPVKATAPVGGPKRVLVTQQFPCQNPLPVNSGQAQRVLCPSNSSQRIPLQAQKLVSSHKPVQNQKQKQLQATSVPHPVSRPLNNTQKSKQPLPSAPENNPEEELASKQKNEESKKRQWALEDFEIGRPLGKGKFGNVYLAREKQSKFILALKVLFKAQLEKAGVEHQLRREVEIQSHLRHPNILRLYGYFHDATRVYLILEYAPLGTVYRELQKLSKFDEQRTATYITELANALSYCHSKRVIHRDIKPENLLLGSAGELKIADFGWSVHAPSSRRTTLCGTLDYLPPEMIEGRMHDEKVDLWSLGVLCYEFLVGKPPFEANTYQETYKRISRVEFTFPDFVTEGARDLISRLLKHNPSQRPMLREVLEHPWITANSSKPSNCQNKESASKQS
As to the kind of experiment: Inhibitory activity against Aurora A kinase.

The target of data set [1] is Cyclin-dependent kinase 2/cyclin A (Homo sapiens, UniProt P24941). As to the kind of experiment: Inhibitory activity against CDK2/Cyclin A. Format: protein-complex assay.
The target in data set [2] is Cyclin-dependent kinase 1/cyclin B (Homo sapiens, UniProt P06493). As to the kind of experiment: Inhibitory activity against CDK1/Cyclin B. Format: protein-complex assay.
For data set [3], the target named is T2, Cyclin-dependent kinase 2/cyclin A (Homo sapiens) (UniProt P24941+P20248+P78396). The data set can be described thus: Inhibition of hyperphosphorylation of pRb by CDK2/cyclin A at 1 uM. Format: functional.
In data set [4] the test system is HT-29. The data set can be described thus: Cell cycle arrest in HT29 cells by accumulation at G1/S phase. Format: functional, cell-based. The settings on record: Homo sapiens.
The next data set deals with A2780. The data set can be described thus: Antiproliferative activity against A2780 cells. The settings on record: Homo sapiens. It counts as functional, cell-based.
Data set [5] can be described thus: Solubility in buffer. It counts as physicochemical.
Data set [6] concerns HT-29. The data set can be described thus: Incorporation of BrdU in HT29 cells. Format: functional, cell-based. The settings on record: Homo sapiens.
The test system of data set [7] is HT-29. The data set can be described thus: Antiproliferative activity against HT29 cells. Format: functional, cell-based. The settings on record: Homo sapiens.
The target in data set [8] is Mitogen-activated protein kinase 1 (Homo sapiens, UniProt P28482). The data set can be described thus: Inhibitory activity against p42MAPK.
The nature of data set [9]: Plasma protein binding. The settings on record: human, read-out: PPB (converted). Format: ADME, cell-free.
A further data set addresses Cytochrome P450 3A4 (Homo sapiens, UniProt P08684). The data set can be described thus: Metabolic stability in presence of CYP3A4. Format: ADME.
The subject of the next data set is HCT-116. The data set can be described thus: Antiproliferative activity against HCT116 cells. It counts as functional, cell-based. Conditions: Homo sapiens.
The target of data set [10] is Cyclin-dependent kinase 4/cyclin D1 (Homo sapiens, UniProt P11802). As to the kind of experiment: Inhibitory activity against CDK4/Cyclin D1. Format: protein-complex assay.
Data set [11] concerns the target Cyclin-dependent kinase 2/cyclin E (Homo sapiens, UniProt P24941). The data set can be described thus: Inhibitory activity against CDK2/Cyclin E. It counts as protein-complex assay.
The target in data set [12] is Glycogen synthase kinase-3 beta (Homo sapiens, UniProt P49841). As to the kind of experiment: Inhibitory activity against GSK3-beta.
The target in data set [13] is T2, Cyclin-dependent kinase 2/cyclin A (Homo sapiens). As to the kind of experiment: Inhibition of hyperphosphorylation of pRb by CDK2/cyclin A at 3 uM. It counts as functional.
Data set [14] addresses Cyclin-dependent kinase 5/CDK5 activator 1 (Homo sapiens, UniProt Q00535). As to the kind of experiment: Inhibitory activity against CDK5/p25. It counts as protein-complex assay.

pIC50: −log10 of the molar value. In brackets after ≈: the same amount, converted by molar mass. Activity calls are given as the source filed them. The rule behind the calls is not given here.

Glycogen synthase kinase-3 beta, sequence (P49841 whole entry): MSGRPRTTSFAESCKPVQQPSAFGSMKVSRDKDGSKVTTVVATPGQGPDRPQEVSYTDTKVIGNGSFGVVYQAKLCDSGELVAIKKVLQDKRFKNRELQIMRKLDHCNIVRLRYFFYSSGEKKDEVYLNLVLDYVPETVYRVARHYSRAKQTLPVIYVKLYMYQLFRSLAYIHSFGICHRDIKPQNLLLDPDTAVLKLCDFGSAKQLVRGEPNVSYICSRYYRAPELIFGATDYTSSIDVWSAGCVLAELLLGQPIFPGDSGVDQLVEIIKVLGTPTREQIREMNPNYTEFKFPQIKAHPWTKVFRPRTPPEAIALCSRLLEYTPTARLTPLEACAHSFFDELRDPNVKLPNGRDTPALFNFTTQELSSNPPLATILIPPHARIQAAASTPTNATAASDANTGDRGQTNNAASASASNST
Mitogen-activated protein kinase 1, sequence (P28482 whole entry): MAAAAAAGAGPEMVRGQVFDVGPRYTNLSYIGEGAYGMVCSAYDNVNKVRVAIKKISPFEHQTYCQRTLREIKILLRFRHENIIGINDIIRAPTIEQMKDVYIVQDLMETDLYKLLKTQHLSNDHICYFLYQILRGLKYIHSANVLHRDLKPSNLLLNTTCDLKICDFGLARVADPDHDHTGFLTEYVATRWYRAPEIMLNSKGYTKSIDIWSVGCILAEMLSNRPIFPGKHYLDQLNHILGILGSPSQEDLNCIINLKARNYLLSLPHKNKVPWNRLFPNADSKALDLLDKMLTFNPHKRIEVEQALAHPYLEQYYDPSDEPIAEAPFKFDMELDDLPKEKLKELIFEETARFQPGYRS
Cytochrome P450 3A4, sequence (P08684 whole entry): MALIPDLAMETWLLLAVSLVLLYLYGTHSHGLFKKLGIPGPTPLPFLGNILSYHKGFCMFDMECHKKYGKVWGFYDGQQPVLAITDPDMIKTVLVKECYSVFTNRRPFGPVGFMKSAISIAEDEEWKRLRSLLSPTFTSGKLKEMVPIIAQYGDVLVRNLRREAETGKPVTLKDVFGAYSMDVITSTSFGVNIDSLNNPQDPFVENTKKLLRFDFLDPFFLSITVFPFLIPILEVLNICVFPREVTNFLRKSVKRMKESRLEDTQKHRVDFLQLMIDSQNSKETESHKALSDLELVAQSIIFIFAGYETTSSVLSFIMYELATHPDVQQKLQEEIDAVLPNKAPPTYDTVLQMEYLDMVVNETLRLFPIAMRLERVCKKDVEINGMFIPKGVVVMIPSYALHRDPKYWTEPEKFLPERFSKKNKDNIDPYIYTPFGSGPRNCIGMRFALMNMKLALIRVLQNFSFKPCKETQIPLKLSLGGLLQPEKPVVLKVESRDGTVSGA
Cyclin-dependent kinase 4/cyclin D1, sequence (P11802 whole entry): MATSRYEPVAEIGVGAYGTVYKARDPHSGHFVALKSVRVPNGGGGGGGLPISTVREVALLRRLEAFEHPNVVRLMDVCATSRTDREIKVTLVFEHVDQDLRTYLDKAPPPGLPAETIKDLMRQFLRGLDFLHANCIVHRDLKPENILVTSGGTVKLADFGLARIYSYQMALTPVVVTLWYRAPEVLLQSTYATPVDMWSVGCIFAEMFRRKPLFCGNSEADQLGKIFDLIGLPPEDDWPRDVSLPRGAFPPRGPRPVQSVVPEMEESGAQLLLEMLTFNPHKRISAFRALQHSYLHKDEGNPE
Cyclin-dependent kinase 4/cyclin D1, sequence (P24385 whole entry, further chain): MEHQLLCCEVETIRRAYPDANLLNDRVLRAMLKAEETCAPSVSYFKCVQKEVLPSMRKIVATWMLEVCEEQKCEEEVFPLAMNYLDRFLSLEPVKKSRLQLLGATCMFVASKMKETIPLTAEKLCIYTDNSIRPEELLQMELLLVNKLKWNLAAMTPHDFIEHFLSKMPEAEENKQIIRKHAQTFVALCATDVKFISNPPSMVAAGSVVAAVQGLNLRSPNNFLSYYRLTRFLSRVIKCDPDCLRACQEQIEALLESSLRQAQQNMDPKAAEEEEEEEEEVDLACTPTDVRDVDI
Cyclin-dependent kinase 5/CDK5 activator 1, sequence (Q00535 whole entry): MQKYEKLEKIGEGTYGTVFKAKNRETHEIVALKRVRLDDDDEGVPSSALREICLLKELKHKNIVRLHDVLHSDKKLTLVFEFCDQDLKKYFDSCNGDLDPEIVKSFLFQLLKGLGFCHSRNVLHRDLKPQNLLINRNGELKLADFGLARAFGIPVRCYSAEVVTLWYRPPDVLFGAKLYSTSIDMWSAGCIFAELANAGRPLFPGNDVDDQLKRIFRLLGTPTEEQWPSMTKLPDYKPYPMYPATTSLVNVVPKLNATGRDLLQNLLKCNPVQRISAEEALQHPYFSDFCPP
Cyclin-dependent kinase 5/CDK5 activator 1, sequence (Q15078 whole entry, further chain): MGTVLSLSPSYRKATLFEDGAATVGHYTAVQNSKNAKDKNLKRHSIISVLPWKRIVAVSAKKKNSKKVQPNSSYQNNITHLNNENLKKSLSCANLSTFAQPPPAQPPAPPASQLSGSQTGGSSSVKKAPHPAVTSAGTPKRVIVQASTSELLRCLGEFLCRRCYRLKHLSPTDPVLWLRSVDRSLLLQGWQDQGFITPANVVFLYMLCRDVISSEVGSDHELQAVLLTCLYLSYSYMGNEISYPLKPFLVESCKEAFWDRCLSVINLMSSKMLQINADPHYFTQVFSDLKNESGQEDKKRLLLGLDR

Consider `CC(=O)N1Cc2n[nH]c(NC(=O)c3ccc(F)cc3)c2C1`, for which the pIC50 (usually −log10 of the IC50, conventionally taken in molar units) against Aurora kinase A was less than 5.00; in data set [1], 5.60.
For `CC(C)NC(=O)N1Cc2n[nH]c(NC(=O)c3ccc4c(c3)OCO4)c2C1`, in that order: 6.41 and 6.92.
The like results for `NC(=O)N1Cc2n[nH]c(NC(=O)Cc3ccccc3)c2C1` were, in that order, less than 5.00 and 7.52.
Regarding `CC(=O)N1Cc2n[nH]c(NC(=O)c3ccccc3)c2C1`, the pIC50 was 5.51 against Aurora kinase A and 5.94 in data set [1].
The like results for `Cc1ccc(C(=O)Nc2[nH]nc3c2CN(C(=O)c2cccc4cccnc24)C3)cc1` were, in that order, 6.36 and 5.98.
For `CCCCNC(=O)N1Cc2n[nH]c(NC(=O)Cc3ccc(N4CCCC4)cc3)c2C1`, the pIC50 in [2] was 6.40; at Aurora kinase A, 5.38; in the data set with A2780, 6.03; in the data set with HT-29 [7] it was 6.70; in data set [8] it was 6.55; in [1], 7.48. Also, the pIC50 in the data set with HCT-116 is 6.05; in data set [10], less than 5.00; in data set [11], 7.04; in data set [12], 6.52. The result (in data set [3]; with HT-29 [4]) was Active. The solubility – broadly, the concentration that dissolves in the medium under given conditions – in data set [5] came out at 39 µM (≈ 16 µg/mL). The result in the data set with HT-29 [6] was inactive. The fraction unbound in data set [9] is 0.05. Also, the Stability on Cytochrome P450 3A4 is 100%.
Regarding `CC(=O)N1Cc2n[nH]c(NC(=O)c3ccc(C#N)cc3)c2C1`, the pIC50 against Aurora kinase A was 5.07; in data set [1], 5.80.
The like results for `CC(=O)N1Cc2n[nH]c(NC(=O)Cc3ccccc3)c2C1` were, in that order, 5.64 and 6.36.
In the case of `CCCCNC(=O)N1Cc2n[nH]c(NC(=O)Cc3ccc4ccccc4c3)c2C1`, the pIC50 was less than 5.00 on Aurora kinase A, 6.27 with A2780 and 7.35 in [1].
Regarding `CC(=O)N1Cc2n[nH]c(NC(=O)c3ccc4c(c3)OCO4)c2C1`, the values for the negative-log IC50 (pIC50) (against Aurora kinase A; in [1]) were less than 5.00 and 5.56, respectively.
For `CC(=O)N1Cc2n[nH]c(NC(=O)c3ccc(C)cc3)c2C1`, the pIC50 was 5.67 against Aurora kinase A and 5.97 in [1].
For `COc1ccc(C(=O)Nc2[nH]nc3c2CN(C(C)=O)C3)cc1`, in that order: 6.18 and 5.86.
The like results for `CC(=O)N1Cc2n[nH]c(NC(=O)c3cccc(F)c3)c2C1` were, in that order, 5.31 and 5.68.
For the compound `CCCCNC(=O)N1Cc2n[nH]c(NC(=O)[C@@H](C)c3ccc4ccccc4c3)c2C1`, the pIC50 in [2] was 6.12; against Aurora kinase A, less than 5.00; with A2780 it was 6.89; with HT-29 [7] it was 7.15; in data set [8], 6.42; in [1] it was 7.44. Also, the pIC50 in the data set with HCT-116 is 6.92; in data set [10], less than 5.00; in [11], 7.05; in [14] it was 6.82; in data set [12] it was 7.30. Besides, the outcome (in data set [13]; with HT-29 [4]) was Active. The solubility in [5] was 27 µM (≈ 10.9 µg/mL). Moreover, in the data set on HT-29 [6], the outcome was inactive. The fraction unbound in data set [9] was 0.01. Besides, on Cytochrome P450 3A4, the Stability is given as 20%.
Turning to `CC(C)C(=O)N1Cc2n[nH]c(NC(=O)c3ccc4c(c3)OCO4)c2C1`, the pIC50 at Aurora kinase A was 6.80; in data set [1], 6.37.
For the compound `CCCCNC(=O)N1Cc2n[nH]c(NC(=O)Cc3ccccc3F)c2C1`, the pIC50 is less than 5.00 on Aurora kinase A and 7.29 in data set [1].
For the compound `O=C(Cc1ccccc1)Nc1[nH]nc2c1CN(C(=O)Nc1ccccc1)C2`, the pIC50 is less than 5.00 against Aurora kinase A and 6.14 in [1].
For `CCCCNC(=O)N1Cc2n[nH]c(NC(=O)Cc3ccc(N4CCCC4=O)cc3)c2C1`, the pIC50 is less than 5.00 against Aurora kinase A, 5.08 with A2780 and 7.29 in data set [1].
